From US5593984A, “Cephalosporin derivatives” (Yuhan Corporation, priority 1992, dated 1997)
Values after ≈ are worked out from the molar mass of the structure shown.

How the values were obtained:
Format in all cases: cell-based
[1] = system: Staph. aureus Smith; test: MIC by agar dilution, Staph. aureus Smith; settings: Staphylococcus aureus, 17 h, Mueller-Hinton agar, read-out: Minimal Inhibitory Concentration (MIC)
How it was run: (§1)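 Growth inhibition was scored after 17±1 hours at 35°-37° C. on Mueller-Hinton agar bearing twofold compound dilutions, with strains seeded at 10^6 CFU per ml; lowest inhibiting level taken as MIC.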

[2] = system: Ent. cloacae IFO 13535; test: MIC by agar dilution, Ent. cloacae IFO 13535; settings: Enterobacter cloacae, IFO13535, 17 h; Ent. cloacae IFO 13535; agar dilution, Mueller-Hinton agar; read-out: Minimal Inhibitory Concentration (MIC)
How it was run: as §1

[3] = system: Ser. marcescens IFO 12648; test: MIC by agar dilution, Ser. marcescens IFO 12648; settings: Serratia marcescens, IFO12648, 17 h; Ser. marcescens IFO 12648; agar dilution, Mueller-Hinton agar; read-out: Minimal Inhibitory Concentration (MIC)
How it was run: as §1

[4] = system: E. coli No. 29; test: MIC by agar dilution, E. coli No. 29; settings: Escherichia coli, 17 h; E. coli No. 29; agar dilution, Mueller-Hinton agar; read-out: Minimal Inhibitory Concentration (MIC)
How it was run: as §1

[5] = system: Ps. aeruginosa ATCC 10145; test: MIC by agar dilution, Ps. aeruginosa ATCC 10145; settings: Pseudomonas aeruginosa, ATCC10145, 17 h, Mueller-Hinton agar, read-out: Minimal Inhibitory Concentration (MIC)
How it was run: as §1

[6] = system: P. vulgaris NCTC 8313; test: MIC by agar dilution, P. vulgaris NCTC 8313; settings: Proteus vulgaris, NCTC8313, 17 h; P. vulgaris NCTC 8313; agar dilution, Mueller-Hinton agar; read-out: Minimal Inhibitory Concentration (MIC)
How it was run: as §1

[7] = system: Staph. aureus ATCC 6538P; test: MIC by agar dilution, Staph. aureus ATCC 6538P; settings: Staphylococcus aureus, ATCC6538P, 17 h; Staph. aureus ATCC 6538P; agar dilution, Mueller-Hinton agar; read-out: Minimal Inhibitory Concentration (MIC)
How it was run: as §1

[8] = system: Staph. aureus C-5216; test: MIC by agar dilution, Staph. aureus C-5216; settings: Staphylococcus aureus, C5216, 17 h, Mueller-Hinton agar, read-out: Minimal Inhibitory Concentration (MIC)
How it was run: as §1

[9] = system: M. morganii DY-1; test: MIC by agar dilution, M. morganii DY-1; settings: Morganella morganii, DY1, 17 h; M. morganii DY-1; agar dilution, Mueller-Hinton agar; read-out: Minimal Inhibitory Concentration (MIC)
How it was run: as §1

[10] = system: E. coli DY-1; test: MIC by agar dilution, E. coli DY-1; settings: Escherichia coli, DY1, 17 h; E. coli DY-1; agar dilution, Mueller-Hinton agar; read-out: Minimal Inhibitory Concentration (MIC)
How it was run: as §1

[11] = system: Ps. aeruginosa DY-2; test: MIC by agar dilution, Ps. aeruginosa DY-2; settings: Pseudomonas aeruginosa, DY2, 17 h; Ps. aeruginosa DY-2; agar dilution, Mueller-Hinton agar; read-out: Minimal Inhibitory Concentration (MIC)
How it was run: as §1

[12] = system: Ent. aerogenes IFO 12979; test: MIC by agar dilution, Ent. aerogenes IFO 12979; settings: Klebsiella aerogenes, IFO12979, 17 h, Mueller-Hinton agar, read-out: Minimal Inhibitory Concentration (MIC)
How it was run: as §1

[13] = system: Staph. aureus C-57; test: MIC by agar dilution, Staph. aureus C-57; settings: Staphylococcus aureus, C57, 17 h, Mueller-Hinton agar, read-out: Minimal Inhibitory Concentration (MIC)
How it was run: as §1

[14] = system: K. pneumoniae NCTC 9632; test: MIC by agar dilution, K. pneumoniae NCTC 9632; settings: Klebsiella pneumoniae, NCTC9632, 17 h; K. pneumoniae NCTC 9632; agar dilution, Mueller-Hinton agar; read-out: Minimal Inhibitory Concentration (MIC)
How it was run: as §1

[15] = system: E. coli NIHJ JC-2; test: MIC by agar dilution, E. coli NIHJ JC-2; settings: Escherichia coli, NIHJJC2, 17 h; E. coli NIHJ JC-2; agar dilution, Mueller-Hinton agar; read-out: Minimal Inhibitory Concentration (MIC)
How it was run: as §1

[16] = system: B. subtilis ATCC 6633; test: MIC by agar dilution, B. subtilis ATCC 6633; settings: Bacillus subtilis, ATCC6633, 17 h; B. subtilis ATCC 6633; agar dilution, Mueller-Hinton agar; read-out: Minimal Inhibitory Concentration (MIC)
How it was run: as §1

[17] = system: Ps. aeruginosa NCTC 10490; test: MIC by agar dilution, Ps. aeruginosa NCTC 10490; settings: Pseudomonas aeruginosa, NCTC10490, 17 h, Mueller-Hinton agar, read-out: Minimal Inhibitory Concentration (MIC)
How it was run: as §1

[18] = system: Staph. aureus C-5113; test: MIC by agar dilution, Staph. aureus C-5113; settings: Staphylococcus aureus, C5113, 17 h, Mueller-Hinton agar, read-out: Minimal Inhibitory Concentration (MIC)
How it was run: as §1

[19] = system: Prov. stuartii IFO 12930; test: MIC by agar dilution, Prov. stuartii IFO 12930; settings: Providencia stuartii, IFO12930, 17 h, Mueller-Hinton agar, read-out: Minimal Inhibitory Concentration (MIC)
How it was run: as §1

[20] = system: S. epidermidis ATCC 12228; test: MIC by agar dilution, S. epidermidis ATCC 12228; settings: Staphylococcus epidermidis, ATCC12228, 17 h; S. epidermidis ATCC 12228; agar dilution, Mueller-Hinton agar; read-out: Minimal Inhibitory Concentration (MIC)
How it was run: as §1

For `CO/N=C(\C(=O)N[C@@H]1C(=O)N2C(C(=O)[O-])=C(C[n+]3ccn4ccc(Cl)c4c3)CS[C@H]12)c1csc(N)n1` [Ex. 33, 7-β-[(Z)-2-(2-aminothiazol-4-yl)2-methoxyiminoacetamido]-3-(8-chloropyrrolo[1,2-a]pyrazinium-2-yl)methyl-3-cephem-4-carboxylate], the MIC [1] was 0.2 µg/mL (≈ 0.365 µM), the MIC [2] was 0.05 µg/mL (≈ 0.0912 µM) and the MIC [3] was 0.012 µg/mL (≈ 0.0219 µM). It also gave an MIC [4] of no more than 0.006 µg/mL, an MIC [5] of 0.78 µg/mL (≈ 1.42 µM) and an MIC [6] of no more than 0.006 µg/mL. The MIC [7] was 0.2 µg/mL (≈ 0.365 µM), the MIC [8] was 0.2 µg/mL (≈ 0.365 µM) and the MIC [9] was no more than 0.006 µg/mL. The MIC [10] was no more than 0.006 µg/mL, the MIC [11] was 1.56 µg/mL (≈ 2.85 µM) and the MIC [12] was 0.025 µg/mL (≈ 0.0456 µM). It also gave an MIC [13] of 25 µg/mL (≈ 45.6 µM), an MIC [14] of 0.012 µg/mL (≈ 0.0219 µM) and an MIC [15] of 0.012 µg/mL (≈ 0.0219 µM). For the same molecule, the MIC [16] was 0.2 µg/mL (≈ 0.365 µM), the MIC [17] was 0.2 µg/mL (≈ 0.365 µM) and the MIC [18] was 0.78 µg/mL (≈ 1.42 µM). It also gave an MIC [19] of no more than 0.006 µg/mL and an MIC [20] of 0.05 µg/mL (≈ 0.0912 µM).
`CO/N=C(\C(=O)N[C@@H]1C(=O)N2C(C(=O)[O-])=C(C[n+]3ccn4c(C(C)=O)cc(Cl)c4c3)CS[C@H]12)c1csc(N)n1` [Ex. 34, 7-β-[(Z)-2-(2-aminothiazol-4-yl)2-methoxyiminoacetamido]-3-(6-acetyl-8-chloropyrrolo[1,2-a]pyrazinium-2-yl)methyl-3-cephem-4-carboxylate] gave an MIC [1] of 1.56 µg/mL (≈ 2.64 µM), an MIC [2] of 0.1 µg/mL (≈ 0.169 µM) and an MIC [3] of 0.05 µg/mL (≈ 0.0847 µM). The MIC [4] was 0.025 µg/mL (≈ 0.0424 µM), the MIC [5] was 6.25 µg/mL (≈ 10.6 µM) and the MIC [6] was 0.012 µg/mL (≈ 0.0203 µM). The MIC [7] was 0.78 µg/mL (≈ 1.32 µM), the MIC [8] was 0.78 µg/mL (≈ 1.32 µM) and the MIC [9] was 0.05 µg/mL (≈ 0.0847 µM). It also gave an MIC [10] of 0.025 µg/mL (≈ 0.0424 µM), an MIC [11] of 25 µg/mL (≈ 42.4 µM) and an MIC [12] of 0.025 µg/mL (≈ 0.0424 µM). The MIC [13] was 25 µg/mL (≈ 42.4 µM), the MIC [14] was 0.025 µg/mL (≈ 0.0424 µM) and the MIC [15] was 0.05 µg/mL (≈ 0.0847 µM). The MIC [16] was 0.39 µg/mL (≈ 0.661 µM), the MIC [17] was 3.13 µg/mL (≈ 5.3 µM) and the MIC [18] was 0.78 µg/mL (≈ 1.32 µM). For the same molecule, the MIC [19] was 0.025 µg/mL (≈ 0.0424 µM) and the MIC [20] was 0.1 µg/mL (≈ 0.169 µM).
`CCO/N=C(\C(=O)N[C@@H]1C(=O)N2C(C(=O)[O-])=C(C[n+]3ccn4c(C(C)=O)cc(Cl)c4c3)CS[C@H]12)c1csc(N)n1` [Ex. 35, 7-β-[(Z)-2-(2-aminothiazol-4-yl)-2-ethoxyiminoacetamido]-3-(6-acetyl-8-chloropyrrolo[1,2-a]pyrazinium-2-yl)methyl-3-cephem-4-carboxylate] was tested, and the MIC [1] was 1.56 µg/mL (≈ 2.58 µM), the MIC [2] was 0.39 µg/mL (≈ 0.646 µM) and the MIC [3] was 0.2 µg/mL (≈ 0.331 µM). It also gave an MIC [4] of 0.05 µg/mL (≈ 0.0828 µM), an MIC [5] of 6.25 µg/mL (≈ 10.3 µM) and an MIC [6] of 0.012 µg/mL (≈ 0.0199 µM). The MIC [7] was 1.56 µg/mL (≈ 2.58 µM), the MIC [8] was 1.56 µg/mL (≈ 2.58 µM) and the MIC [9] was 0.2 µg/mL (≈ 0.331 µM). For the same molecule, the MIC [10] was 0.025 µg/mL (≈ 0.0414 µM), the MIC [11] was 25 µg/mL (≈ 41.4 µM) and the MIC [12] was 0.05 µg/mL (≈ 0.0828 µM). For the same molecule, the MIC [13] was 25 µg/mL (≈ 41.4 µM), the MIC [14] was 0.1 µg/mL (≈ 0.166 µM) and the MIC [15] was 0.1 µg/mL (≈ 0.166 µM). For the same molecule, the MIC [16] was 0.39 µg/mL (≈ 0.646 µM), the MIC [17] was 3.13 µg/mL (≈ 5.18 µM) and the MIC [18] was 1.56 µg/mL (≈ 2.58 µM). For the same molecule, the MIC [19] was 0.1 µg/mL (≈ 0.166 µM) and the MIC [20] was 0.1 µg/mL (≈ 0.166 µM).
`CO/N=C(\C(=O)N[C@@H]1C(=O)N2C(C(=O)[O-])=C(C[n+]3ccn4c(C(C)C)cc(C(C)C)c4c3)CS[C@H]12)c1csc(N)n1` [Ex. 36, 7-β-[(Z)-2-(2-aminothiazol-4-yl)-2-methoxyiminoacetamido]-3-(6,8-diisopropyl-pyrrolo[1,2-a]pyrazinium-2-yl)methyl-3-cephem-4-carboxylate] gave an MIC [1] of 3.13 µg/mL (≈ 5.24 µM), an MIC [2] of 3.13 µg/mL (≈ 5.24 µM) and an MIC [3] of 0.78 µg/mL (≈ 1.3 µM). The MIC [4] was 0.2 µg/mL (≈ 0.335 µM), the MIC [5] was 50 µg/mL (≈ 83.7 µM) and the MIC [6] was 0.05 µg/mL (≈ 0.0837 µM). For the same molecule, the MIC [7] was 0.39 µg/mL (≈ 0.652 µM), the MIC [8] was 6.25 µg/mL (≈ 10.5 µM) and the MIC [9] was 1.56 µg/mL (≈ 2.61 µM). The MIC [10] was 0.1 µg/mL (≈ 0.167 µM), the MIC [11] was 100 µg/mL (≈ 167 µM) and the MIC [12] was 0.2 µg/mL (≈ 0.335 µM). For the same molecule, the MIC [13] was 100 µg/mL (≈ 167 µM), the MIC [14] was 0.78 µg/mL (≈ 1.3 µM) and the MIC [15] was 0.78 µg/mL (≈ 1.3 µM). It also gave an MIC [16] of 0.2 µg/mL (≈ 0.335 µM), an MIC [17] of 25 µg/mL (≈ 41.8 µM) and an MIC [18] of 1.56 µg/mL (≈ 2.61 µM). The MIC [19] was 0.2 µg/mL (≈ 0.335 µM) and the MIC [20] was 0.2 µg/mL (≈ 0.335 µM).
